Values of other authors in patent US10160778B2, “Pyrimidine phosphonic acid esters” (Concert Pharmaceuticals, Inc., priority 2014, dated 2018).

Details: phase II study for the prevention of cytomegalovirus infection

## CCCCCCCCCCCCCCCCOCCCOP(=O)(O)CO[C@H](CO)Cn1ccc(N)nc1=O [brincidofovir, 3-(hexadecyloxy)propyl hydrogen ((((S)-1-(4-amino-2-oxopyrimidin-1 (2H)-yl)-3-hydroxypropan-2-yl)oxy)methyl)phosphonate]
  dose-limiting side effect: diarrhea
